pIC50: −log10 of the molar value.
Assays:
MERTK = target: T1, MERTK (Homo sapiens, UniProt Q12866); assay: TR-FRET kinase activity assay, MERTK; type: biochemical; conditions: for pIC50: TR-FRET activity assay, ATP at Km, 60 minutes, read-out: Mer IC50; for FLT3/Mer ratio (FLT3 IC50/Mer IC50): ratio calculated as FLT3 IC50/Mer IC50
T1 sequence (Q12866 21-999): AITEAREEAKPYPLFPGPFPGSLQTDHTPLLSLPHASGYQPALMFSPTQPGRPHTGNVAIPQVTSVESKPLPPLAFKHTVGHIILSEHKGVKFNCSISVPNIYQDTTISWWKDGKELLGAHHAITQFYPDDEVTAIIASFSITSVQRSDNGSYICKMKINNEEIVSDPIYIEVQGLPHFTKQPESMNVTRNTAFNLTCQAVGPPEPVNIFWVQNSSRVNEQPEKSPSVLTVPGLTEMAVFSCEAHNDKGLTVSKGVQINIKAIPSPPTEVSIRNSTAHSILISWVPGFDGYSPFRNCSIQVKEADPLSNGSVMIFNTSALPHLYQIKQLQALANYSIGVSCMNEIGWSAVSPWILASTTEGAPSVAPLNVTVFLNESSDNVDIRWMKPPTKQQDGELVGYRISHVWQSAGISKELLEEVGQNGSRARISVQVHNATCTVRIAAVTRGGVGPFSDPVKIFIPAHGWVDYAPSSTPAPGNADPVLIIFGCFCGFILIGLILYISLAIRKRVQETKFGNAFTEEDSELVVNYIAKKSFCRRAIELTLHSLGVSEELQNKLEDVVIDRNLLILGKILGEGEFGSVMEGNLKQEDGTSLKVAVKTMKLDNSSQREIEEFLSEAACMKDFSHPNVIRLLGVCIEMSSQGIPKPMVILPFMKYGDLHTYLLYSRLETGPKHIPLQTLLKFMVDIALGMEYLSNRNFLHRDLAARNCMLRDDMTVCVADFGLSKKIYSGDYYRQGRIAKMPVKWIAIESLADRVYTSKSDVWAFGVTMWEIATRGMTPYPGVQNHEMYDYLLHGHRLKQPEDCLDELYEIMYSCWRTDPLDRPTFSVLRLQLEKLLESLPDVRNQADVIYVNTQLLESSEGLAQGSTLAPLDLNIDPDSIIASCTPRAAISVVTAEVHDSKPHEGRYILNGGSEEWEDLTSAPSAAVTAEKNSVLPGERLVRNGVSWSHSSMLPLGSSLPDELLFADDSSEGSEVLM
Procedure, shortened: (§1)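 IC50 reflects the drop in TR-FRET between Eu anti-phosphotyrosine antibody and labelled peptide after a 60-minute room-temperature reaction. Buffer was 50 mM HEPES pH 7.5 with 10 mM MgCl2, 1 mM EGTA, 0.01% Brij 35 and 1 mM DTT, with ATP at Km per enzyme and EDTA quench.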

TYRO3 = target: T2, TYRO3 (Homo sapiens, UniProt Q06418); assay: TR-FRET kinase activity assay, TYRO3; type: biochemical; conditions: ATP at Km, 60 minutes
T2 sequence (Q06418 41-890): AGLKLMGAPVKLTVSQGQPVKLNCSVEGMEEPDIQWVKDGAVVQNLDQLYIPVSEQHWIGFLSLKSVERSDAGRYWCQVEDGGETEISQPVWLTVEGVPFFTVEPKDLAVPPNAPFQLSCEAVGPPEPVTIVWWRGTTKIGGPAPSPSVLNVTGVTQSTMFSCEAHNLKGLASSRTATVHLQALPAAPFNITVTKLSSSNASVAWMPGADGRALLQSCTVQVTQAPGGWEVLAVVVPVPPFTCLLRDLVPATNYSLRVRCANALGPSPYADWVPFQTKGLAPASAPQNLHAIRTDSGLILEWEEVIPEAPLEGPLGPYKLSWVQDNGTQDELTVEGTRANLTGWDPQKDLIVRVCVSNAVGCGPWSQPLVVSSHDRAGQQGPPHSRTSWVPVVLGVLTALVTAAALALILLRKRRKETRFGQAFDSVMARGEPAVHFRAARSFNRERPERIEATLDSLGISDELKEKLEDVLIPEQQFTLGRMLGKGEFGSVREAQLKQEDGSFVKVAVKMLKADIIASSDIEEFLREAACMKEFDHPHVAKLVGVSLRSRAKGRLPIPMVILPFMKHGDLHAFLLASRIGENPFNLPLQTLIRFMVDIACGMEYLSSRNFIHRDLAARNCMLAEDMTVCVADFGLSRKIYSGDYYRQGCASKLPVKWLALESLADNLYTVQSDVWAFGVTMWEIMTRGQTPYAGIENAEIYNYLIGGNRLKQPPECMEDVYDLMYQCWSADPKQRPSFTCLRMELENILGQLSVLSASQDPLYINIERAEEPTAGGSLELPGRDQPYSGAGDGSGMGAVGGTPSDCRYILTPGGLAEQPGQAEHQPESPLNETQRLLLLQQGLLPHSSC
Procedure, shortened: as §1

pIC50 (MERTK)	FLT3/Mer ratio (FLT3 IC50/Mer IC50) (MERTK)	pIC50 (TYRO3)	Compound
≥ 7.00	+++ (“+++” represents a ratio of >100)	≥ 7.00	COC[C@H](C)Nc1ncc2c(-c3cnn(C4(C(=O)N5CCCC5)CC4)c3)cc([C@H]3CC[C@H](O)CC3)n2n1 [Compound 408]
≥ 7.00	+++ (“+++” represents a ratio of >100)	≥ 7.00	CNC(=O)c1cc(-c2cc([C@H]3CC[C@H](O)CC3)n3nc(N[C@@H](C)COC(F)F)ncc23)ccn1 [Compound 411]
≥ 7.00	+++ (“+++” represents a ratio of >100)	≥ 7.00	C[C@@H](CC(F)(F)F)Nc1ncc2c(C3=CCN(C(=O)OC(C)(C)C)CC3)cc([C@H]3CC[C@H](O)CC3)n2n1 [Compound 412]
≥ 7.00	+++ (“+++” represents a ratio of >100)	≥ 7.00	COC[C@H](C)Nc1ncc2c(-c3cnn(C4(C(=O)N5CCOCC5)CC4)c3)cc([C@H]3CC[C@H](O)CC3)n2n1 [Compound 414]
≥ 7.00	+++ (“+++” represents a ratio of >100)	≥ 7.00	COC[C@H](C)Nc1ncc2c(-c3cnn(C4(C(=O)NC(C)C)CC4)c3)cc([C@H]3CC[C@H](O)CC3)n2n1 [Compound 415]
≥ 7.00	+++ (“+++” represents a ratio of >100)	≥ 7.00	COC[C@H](C)Nc1ncc2c(-c3ccnc(N[C@@H]4CCOC4)c3)cc([C@H]3CC[C@H](O)CC3)n2n1 [Compound 416]
≥ 7.00	+++ (“+++” represents a ratio of >100)	≥ 7.00	COC[C@H](C)Nc1ncc2c(-c3ccnc(NC4CCOC4)c3)cc([C@H]3CC[C@H](O)CC3)n2n1 (stereo partly drawn) [Compound 418]
≥ 7.00	+++ (“+++” represents a ratio of >100)	≥ 7.00	COC[C@H](C)Nc1ncc2c(-c3cnn(CS(C)(=O)=O)c3)cc([C@H]3CC[C@H](O)CC3)n2n1 [Compound 419]
≥ 7.00	+++ (“+++” represents a ratio of >100)	≥ 7.00	COC[C@H](C)Nc1ncc2c(-c3cnn(CC4COC4)c3)cc([C@H]3CC[C@H](O)CC3)n2n1 [Compound 420]
≥ 7.00	+++ (“+++” represents a ratio of >100)	≥ 7.00	COC[C@H](C)Nc1ncc2c(-c3cnn([C@@H]4CO[C@H]5OCC[C@H]54)c3)cc([C@H]3CC[C@H](O)CC3)n2n1 [Compound 422]

Compound	pIC50 (MERTK)	FLT3/Mer ratio (FLT3 IC50/Mer IC50) (MERTK)	pIC50 (TYRO3)
CC(=O)N1CCN(Cc2ccc(-c3cc([C@H]4CC[C@H](O)CC4)n4nc(N[C@@H](C)COC(F)F)ncc34)cc2)CC1 [Compound 413]	≥ 7.00	++ (“++” represents a ratio of between 10 and 100)	≥ 7.00

Source: US11040981B2, “Pyrrolotriazine compounds and methods of inhibiting TAM kinases” (Syros Pharmaceuticals, Inc., priority 2017, dated 2021)
